Here are results for two compounds from patent US9814761B2, “Compositions, methods and assays comprising amylin or amlyin analogs for abeta-peptide mediated disorders” (TRUSTEES OF BOSTON UNIVERSITY, priority 2012, dated 2017).

Entries after “also recorded” stand apart in the source; their conditions may differ.

Data set [1] concerns the target T1, IDE (insulin degrading enzyme) (Mus musculus, UniProt Q9JHR7).
T1 construct: endogenous in cells; host or cells: Tg2576 (APP transgenic) mice, whole animal, i.p. dosing
T1 sequence (Q9JHR7 1-1019): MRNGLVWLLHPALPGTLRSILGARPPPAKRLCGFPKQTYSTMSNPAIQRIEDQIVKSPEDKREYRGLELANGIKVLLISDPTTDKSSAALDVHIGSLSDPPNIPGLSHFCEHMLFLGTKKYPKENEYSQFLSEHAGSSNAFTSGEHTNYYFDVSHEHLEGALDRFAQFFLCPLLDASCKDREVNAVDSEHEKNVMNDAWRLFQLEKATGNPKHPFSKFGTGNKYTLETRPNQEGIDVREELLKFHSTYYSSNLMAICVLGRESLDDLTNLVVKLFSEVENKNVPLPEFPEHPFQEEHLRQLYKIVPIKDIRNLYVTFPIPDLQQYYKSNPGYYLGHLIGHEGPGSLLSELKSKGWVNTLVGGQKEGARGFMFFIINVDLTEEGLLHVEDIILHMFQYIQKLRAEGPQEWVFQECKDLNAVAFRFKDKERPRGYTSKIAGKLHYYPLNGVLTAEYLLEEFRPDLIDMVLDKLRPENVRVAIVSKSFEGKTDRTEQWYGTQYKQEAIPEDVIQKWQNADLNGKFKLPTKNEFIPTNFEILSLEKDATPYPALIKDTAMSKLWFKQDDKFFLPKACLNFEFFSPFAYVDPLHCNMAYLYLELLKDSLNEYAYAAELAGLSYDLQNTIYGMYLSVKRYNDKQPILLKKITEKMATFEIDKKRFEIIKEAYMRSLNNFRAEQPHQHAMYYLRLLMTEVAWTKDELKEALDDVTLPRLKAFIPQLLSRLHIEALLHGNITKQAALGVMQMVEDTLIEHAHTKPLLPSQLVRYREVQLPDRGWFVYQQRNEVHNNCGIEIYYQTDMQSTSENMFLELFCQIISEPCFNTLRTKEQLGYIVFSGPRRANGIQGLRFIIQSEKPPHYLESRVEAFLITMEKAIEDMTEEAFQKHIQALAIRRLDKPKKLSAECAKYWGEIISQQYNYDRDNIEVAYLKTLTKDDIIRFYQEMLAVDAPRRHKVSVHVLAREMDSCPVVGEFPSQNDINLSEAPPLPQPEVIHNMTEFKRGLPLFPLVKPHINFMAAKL
The data set is described as follows: pre-treatment with IDE inhibitor followed by amylin challenge, serum Aβ. Type of data set: in vivo. The conditions noted are these: Tg2576 mice pre-treated with 1-10 phenonthrolin, then amylin challenge. As for the experimental part: Tg2576 mice were used for the amylin challenge test. The mice received blood draws before any treatment. Then the mice had intraperitoneally injection (i.p) of PBS, AC253 (amylin receptor antagonist) or 1,10-phenonthrolin (IDE inhibitor) and received another blood draw 24 hrs post the treatment followed by i.p amylin (20 mg/kg). The final blood draw was conducted after 24 hrs post i.p amylin. Serum Aβ1-40 (5A) and Aβ1-42 (5B) were measured by using the ELISA assays. The levels of serum Aβ1-40 and Aβ1-42 at pre-injection of amylin were treated as 1 s, and the relative fold increases with different treatments were calculated and compared with the pre-injection level by using two-way ANOVA. P values for statistical significance are shown.
As amylin and Aβ are degraded by the same protease, IDE, we next pre-treated the Tg2576 mice with 1-10 phenonthrolin, a metalloprotease inhibitor to inhibit the activity of IDE, followed by the amylin challenge. It was next tested whether CTR/RAMP3 and IDE form a complex in this process to regulate Aβ in the brain. […] Another experiment with IDE immunoprecipitation and then RAMP3 western blot also illustrated the complex.

Data set [2] is described as follows: blood (stick) glucose monitored after pramlintide injection in two human subjects. Type of data set: in vivo. As to conditions: pramlintide 60 mcg s.c. As to the method:
(§1) Subcutaneous injections of one dose of pramlintide (60 mcg) was performed in two subjects followed in the research registry of the BU ADC, one control and one probable Alzheimer's disease. Blood was drawn to collect plasma samples before the injection and at 5, 30, 60 and 180 minutes after the injection. Vital signs and blood glucose were monitored at these time points and prior to discharge of the subject from the facility. One hour after the injection, the subjects were offered a standard meal. Plasma Aβ1-40 and Aβ1-42 were measured (Table 2). […] The human results provided herein are encouraging, in part, because the dose of pramlintide (60 mcg) used was only moderate.

The subject of a further data set is mouse models. The experiment in a line: daily dosing in mouse models, memory functions. The format is in vivo, mice.
The next data set concerns plasma Aβ1-40 and Aβ1-42. The experiment in a line: pramlintide challenge in two human subjects, plasma Aβ1-40 and Aβ1-42. Type of data set: in vivo. The conditions noted are these: pramlintide 60 mcg s.c. As for the experimental part:
as §1

Consider `c1cnc2c(c1)ccc1cccnc12` [1-10 phenonthrolin, 1,10-phenonthrolin], for which, in data set [1], the “surges of serum Aβ at 24 hrs post the peripheral injection of amylin” value is recorded as “completely blocked”.
Turning to `CC[C@H](C)[C@H](NC(=O)[C@@H]1CCCN1C(=O)CNC(=O)[C@H](Cc1ccccc1)NC(=O)[C@H](CC(N)=O)NC(=O)[C@H](CC(N)=O)NC(=O)[C@H](CO)NC(=O)[C@H](CO)NC(=O)[C@H](Cc1c[nH]cn1)NC(=O)[C@@H](NC(=O)[C@H](CC(C)C)NC(=O)[C@H](Cc1ccccc1)NC(=O)[C@H](CC(N)=O)NC(=O)[C@H](C)NC(=O)[C@H](CC(C)C)NC(=O)[C@H](CCCNC(=N)N)NC(=O)[C@H](CCC(N)=O)NC(=O)[C@@H](NC(=O)[C@H](C)NC(=O)[C@@H]1CSSC[C@H](NC(=O)[C@@H](N)CCCCN)C(=O)N[C@@H](CC(N)=O)C(=O)N[C@@H]([C@@H](C)O)C(=O)N[C@@H](C)C(=O)N[C@@H]([C@@H](C)O)C(=O)N1)[C@@H](C)O)C(C)C)C(=O)N[C@@H](CC(C)C)C(=O)N1CCC[C@H]1C(=O)N1CCC[C@H]1C(=O)N[C@H](C(=O)N[C@@H](CC(N)=O)C(=O)N[C@H](C(=O)NCC(=O)N[C@@H](CO)C(=O)N[C@@H](CC(N)=O)C(=O)N[C@H](C(=O)N[C@@H](Cc1ccc(O)cc1)C(N)=O)[C@@H](C)O)C(C)C)[C@@H](C)O` [pramlintide], the Glucose was 91 mg/dL in data set [2] (AD subject, post 5', pre-injection 85); 88 mg/dL in data set [2] (AD subject, post 30', pre-injection 85); 135 mg/dL in data set [2] (AD subject, post 60', pre-injection 85, standard meal offered one hour after injection); 115 mg/dL in data set [2] (AD subject, post 180', pre-injection 85, standard meal offered one hour after injection); 108 mg/dL in data set [2] (control subject, post 5', pre-injection 115); 115 mg/dL in data set [2] (control subject, post 30', pre-injection 115). In addition, the Glucose in data set [2] (control subject, post 60', pre-injection 115, standard meal offered one hour after injection) turned out to be 114 mg/dL; in data set [2] (control subject, post 180', pre-injection 115, standard meal offered one hour after injection), 149 mg/dL. Further, the “memory functions / cognition” value in the data set with mouse models was “increased memory functions; also recorded: led to cognitive improvements”. In addition, the “plasma Aβ1-42” value in the data set on plasma Aβ1-40 and Aβ1-42 (AD subject, post 5', pre-injection 27.0) is 29.0 pg/mL; with plasma Aβ1-40 and Aβ1-42 (AD subject, post 30', pre-injection 27.0), 31.8 pg/mL; in the data set on plasma Aβ1-40 and Aβ1-42 (AD subject, post 60', pre-injection 27.0), 26.6 pg/mL; with plasma Aβ1-40 and Aβ1-42 (AD subject, post 180', pre-injection 27.0), 22.0 pg/mL; in the data set on plasma Aβ1-40 and Aβ1-42 (control subject, post 5', pre-injection 29.9), 26.0 pg/mL; with plasma Aβ1-40 and Aβ1-42 (control subject, post 30', pre-injection 29.9), 27.5 pg/mL. Besides, the “plasma Aβ1-42” value in the data set on plasma Aβ1-40 and Aβ1-42 (control subject, post 60', pre-injection 29.9) was found to be 21.7 pg/mL; in the data set with plasma Aβ1-40 and Aβ1-42 (control subject, post 180', pre-injection 29.9), 10.6 pg/mL. The “plasma Aβ1-40” value with plasma Aβ1-40 and Aβ1-42 (AD subject, post 5', pre-injection 180.6) worked out at 160.8 pg/mL; with plasma Aβ1-40 and Aβ1-42 (AD subject, post 30', pre-injection 180.6), 161.0 pg/mL; in the data set with plasma Aβ1-40 and Aβ1-42 (AD subject, post 60', pre-injection 180.6) it was 129.4 pg/mL; in the data set on plasma Aβ1-40 and Aβ1-42 (AD subject, post 180', pre-injection 180.6), 104.6 pg/mL; in the data set with plasma Aβ1-40 and Aβ1-42 (control subject, post 5', pre-injection 148.4), 178.4 pg/mL; in the data set on plasma Aβ1-40 and Aβ1-42 (control subject, post 30', pre-injection 148.4) it was 150.4 pg/mL. Further, the “plasma Aβ1-40” value was 110.5 pg/mL in the data set on plasma Aβ1-40 and Aβ1-42 (control subject, post 60', pre-injection 148.4); 100.8 pg/mL with plasma Aβ1-40 and Aβ1-42 (control subject, post 180', pre-injection 148.4).
